# Laboratory results: PubChem BioAssay (NCI)
#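 These data come from cells grown in 96-well plates and exposed to compound for 48 hours at five concentrations. Here, GI50 denotes the concentration required for 50% inhibition of growth. At the TGI there is no net growth.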
# Columns and labels:
# Test in all cases: growth of human tumour cells (NCI), 48 h
# UACC-257 melanoma = test system: UACC-257 melanoma
# IGROV1 ovarian = test system: IGROV1 ovarian
# SK-MEL-2 melanoma = test system: SK-MEL-2 melanoma
# 786-0 renal = test system: 786-0 renal
# HCT-15 colon = test system: HCT-15 colon
# KM12 colon = test system: KM12 colon
# MDA-MB-435 = test system: MDA-MB-435
# NCI-H522 lung = test system: NCI-H522 lung
# SF-539 CNS = test system: SF-539 CNS
# ACHN renal = test system: ACHN renal
# NCI-H460 lung = test system: NCI-H460 lung
# MALME-3M melanoma = test system: MALME-3M melanoma
# PC-3 prostate = test system: PC-3 prostate
# UACC-62 melanoma = test system: UACC-62 melanoma
# A498 renal = test system: A498 renal
# EKVX NSCLC = test system: EKVX NSCLC
# A549 NSCLC = test system: A549 NSCLC
# NCI-H23 lung = test system: NCI-H23 lung
# NCI-H226 lung = test system: NCI-H226 lung
# SF-268 CNS = test system: SF-268 CNS
# DU-145 prostate = test system: DU-145 prostate
# HOP-62 NSCLC = test system: HOP-62 NSCLC
# SN12C renal = test system: SN12C renal
# SK-OV-3 ovarian = test system: SK-OV-3 ovarian
# NCI/ADR-RES ovarian = test system: NCI/ADR-RES ovarian
# SNB-75 CNS = test system: SNB-75 CNS
# BT-549 breast = test system: BT-549 breast
# OVCAR-5 ovarian = test system: OVCAR-5 ovarian
# SNB-19 CNS = test system: SNB-19 CNS
# HCC-2998 colon = test system: HCC-2998 colon
# CAKI-1 renal = test system: CAKI-1 renal
# SK-MEL-5 melanoma = test system: SK-MEL-5 melanoma
# TK-10 renal = test system: TK-10 renal
# RXF 393 renal = test system: RXF 393 renal
# SK-MEL-28 melanoma = test system: SK-MEL-28 melanoma
# HT29 colon = test system: HT29 colon
# HOP-92 NSCLC = test system: HOP-92 NSCLC
# HCT-116 colon = test system: HCT-116 colon
# UO-31 renal = test system: UO-31 renal
# OVCAR-8 ovarian = test system: OVCAR-8 ovarian
# SF-295 CNS = test system: SF-295 CNS
# SW-620 colon = test system: SW-620 colon
# CCRF-CEM leukemia = test system: CCRF-CEM leukemia
# MOLT-4 leukemia = test system: MOLT-4 leukemia
# M14 melanoma = test system: M14 melanoma
# OVCAR-4 ovarian = test system: OVCAR-4 ovarian
# HL-60(TB) leukemia = test system: HL-60(TB) leukemia
# RPMI-8226 leukemia = test system: RPMI-8226 leukemia
# MCF7 breast = test system: MCF7 breast
# K-562 leukemia = test system: K-562 leukemia
# SR leukemia = test system: SR leukemia
# MDA-MB-231 breast = test system: MDA-MB-231 breast
# HS 578T breast = test system: HS 578T breast
# U251 CNS = test system: U251 CNS
# LOX IMVI melanoma = test system: LOX IMVI melanoma
compound,measurement,setting,value
COc1ccc2nc3ccccc3c(NCc3ccc(Cl)cc3)c2c1,GI50,UACC-257 melanoma,2030 nM
same,TGI,UACC-257 melanoma,4570 nM
same,GI50,IGROV1 ovarian,2400 nM
same,TGI,IGROV1 ovarian,6650 nM
same,GI50,SK-MEL-2 melanoma,1930 nM
same,TGI,SK-MEL-2 melanoma,3700 nM
same,GI50,786-0 renal,1730 nM
same,TGI,786-0 renal,3200 nM
same,GI50,HCT-15 colon,1730 nM
same,TGI,HCT-15 colon,3880 nM
same,GI50,KM12 colon,3080 nM
same,TGI,KM12 colon,11300 nM
same,GI50,MDA-MB-435,1500 nM
same,TGI,MDA-MB-435,3060 nM
same,GI50,NCI-H522 lung,2020 nM
same,TGI,NCI-H522 lung,5080 nM
same,GI50,SF-539 CNS,1710 nM
same,TGI,SF-539 CNS,3240 nM
same,GI50,ACHN renal,1550 nM
same,TGI,ACHN renal,2890 nM
same,GI50,NCI-H460 lung,1880 nM
same,TGI,NCI-H460 lung,3690 nM
same,GI50,MALME-3M melanoma,1810 nM
same,TGI,MALME-3M melanoma,3390 nM
same,GI50,PC-3 prostate,1790 nM
same,TGI,PC-3 prostate,4240 nM
same,GI50,UACC-62 melanoma,1660 nM
same,TGI,UACC-62 melanoma,3210 nM
same,GI50,A498 renal,1440 nM
same,TGI,A498 renal,2770 nM
same,GI50,EKVX NSCLC,2300 nM
same,TGI,EKVX NSCLC,5920 nM
same,GI50,A549 NSCLC,2060 nM
same,TGI,A549 NSCLC,4890 nM
same,GI50,NCI-H23 lung,1860 nM
same,TGI,NCI-H23 lung,4520 nM
same,GI50,NCI-H226 lung,2140 nM
same,TGI,NCI-H226 lung,5740 nM
same,GI50,SF-268 CNS,1980 nM
same,TGI,SF-268 CNS,4610 nM
same,GI50,DU-145 prostate,2650 nM
same,TGI,DU-145 prostate,7330 nM
same,GI50,HOP-62 NSCLC,1720 nM
same,TGI,HOP-62 NSCLC,3440 nM
same,GI50,SN12C renal,1730 nM
same,TGI,SN12C renal,3860 nM
same,GI50,SK-OV-3 ovarian,3190 nM
same,TGI,SK-OV-3 ovarian,9800 nM
same,GI50,NCI/ADR-RES ovarian,1800 nM
same,TGI,NCI/ADR-RES ovarian,3970 nM
same,GI50,SNB-75 CNS,1270 nM
same,TGI,SNB-75 CNS,2620 nM
same,GI50,BT-549 breast,5640 nM
same,TGI,BT-549 breast,20800 nM
same,GI50,OVCAR-5 ovarian,1910 nM
same,TGI,OVCAR-5 ovarian,4900 nM
same,GI50,SNB-19 CNS,2260 nM
same,TGI,SNB-19 CNS,6350 nM
same,GI50,HCC-2998 colon,1760 nM
same,TGI,HCC-2998 colon,3240 nM
same,GI50,CAKI-1 renal,1690 nM
same,TGI,CAKI-1 renal,3230 nM
same,GI50,SK-MEL-5 melanoma,1760 nM
same,TGI,SK-MEL-5 melanoma,3190 nM
same,GI50,TK-10 renal,1960 nM
same,TGI,TK-10 renal,3840 nM
same,GI50,RXF 393 renal,1450 nM
same,TGI,RXF 393 renal,3000 nM
same,GI50,SK-MEL-28 melanoma,1780 nM
same,TGI,SK-MEL-28 melanoma,3360 nM
same,GI50,HT29 colon,2020 nM
same,TGI,HT29 colon,7080 nM
same,GI50,HOP-92 NSCLC,1480 nM
same,TGI,HOP-92 NSCLC,3350 nM
same,GI50,HCT-116 colon,1790 nM
same,TGI,HCT-116 colon,4140 nM
same,GI50,UO-31 renal,1340 nM
same,TGI,UO-31 renal,2750 nM
same,GI50,OVCAR-8 ovarian,2250 nM
same,TGI,OVCAR-8 ovarian,5910 nM
same,GI50,SF-295 CNS,1500 nM
same,TGI,SF-295 CNS,2930 nM
same,GI50,SW-620 colon,1650 nM
same,TGI,SW-620 colon,3470 nM
same,GI50,CCRF-CEM leukemia,2660 nM
same,TGI,CCRF-CEM leukemia,9480 nM
same,GI50,MOLT-4 leukemia,3190 nM
same,TGI,MOLT-4 leukemia,13300 nM
same,GI50,M14 melanoma,1810 nM
same,TGI,M14 melanoma,3470 nM
same,GI50,OVCAR-4 ovarian,2130 nM
same,TGI,OVCAR-4 ovarian,6350 nM
same,GI50,HL-60(TB) leukemia,2290 nM
same,TGI,HL-60(TB) leukemia,5240 nM
Cn1cc(-c2ccc(-c3cn(C)c4ccc(Cl)cc34)[nH]2)c2cc(Cl)ccc21,GI50,UACC-257 melanoma,2250 nM
same,TGI,UACC-257 melanoma,4490 nM
same,GI50,RPMI-8226 leukemia,356 nM
same,TGI,RPMI-8226 leukemia,1310 nM
same,GI50,SK-MEL-2 melanoma,1990 nM
same,TGI,SK-MEL-2 melanoma,4910 nM
same,GI50,786-0 renal,5310 nM
same,TGI,786-0 renal,29500 nM
same,GI50,HCT-15 colon,1100 nM
same,TGI,HCT-15 colon,2500 nM
same,GI50,KM12 colon,1200 nM
same,TGI,KM12 colon,3770 nM
same,GI50,SF-539 CNS,1140 nM
same,TGI,SF-539 CNS,3450 nM
same,GI50,ACHN renal,1080 nM
same,TGI,ACHN renal,2280 nM
same,GI50,PC-3 prostate,434 nM
same,TGI,PC-3 prostate,1720 nM
same,GI50,UACC-62 melanoma,946 nM
same,TGI,UACC-62 melanoma,2390 nM
same,GI50,A498 renal,4170 nM
same,TGI,A498 renal,19000 nM
same,GI50,A549 NSCLC,1790 nM
same,TGI,A549 NSCLC,4190 nM
same,GI50,NCI-H23 lung,3230 nM
same,TGI,NCI-H23 lung,24700 nM
same,GI50,NCI-H226 lung,1930 nM
same,TGI,NCI-H226 lung,4250 nM
same,GI50,SF-268 CNS,1380 nM
same,TGI,SF-268 CNS,4090 nM
same,GI50,DU-145 prostate,3570 nM
same,TGI,DU-145 prostate,15300 nM
same,GI50,HOP-62 NSCLC,2250 nM
same,TGI,HOP-62 NSCLC,7760 nM
same,GI50,SN12C renal,2390 nM
same,TGI,SN12C renal,5720 nM
same,GI50,NCI/ADR-RES ovarian,1840 nM
same,TGI,NCI/ADR-RES ovarian,> 100000 nM
same,GI50,SNB-75 CNS,1750 nM
same,TGI,SNB-75 CNS,4380 nM
same,GI50,MCF7 breast,2850 nM
same,TGI,MCF7 breast,15400 nM
same,GI50,BT-549 breast,419 nM
same,TGI,BT-549 breast,1710 nM
same,GI50,OVCAR-5 ovarian,663 nM
same,TGI,OVCAR-5 ovarian,2820 nM
same,GI50,K-562 leukemia,377 nM
same,TGI,K-562 leukemia,2030 nM
same,GI50,SR leukemia,617 nM
same,TGI,SR leukemia,3190 nM
same,GI50,SNB-19 CNS,1390 nM
same,TGI,SNB-19 CNS,4060 nM
same,GI50,MDA-MB-231 breast,442 nM
same,TGI,MDA-MB-231 breast,1980 nM
same,GI50,HS 578T breast,1140 nM
same,TGI,HS 578T breast,5370 nM
same,GI50,TK-10 renal,3140 nM
same,TGI,TK-10 renal,9800 nM
same,GI50,RXF 393 renal,882 nM
same,TGI,RXF 393 renal,2310 nM
same,GI50,SK-MEL-28 melanoma,1820 nM
same,TGI,SK-MEL-28 melanoma,3950 nM
same,GI50,HT29 colon,3920 nM
same,TGI,HT29 colon,16000 nM
same,GI50,HOP-92 NSCLC,1150 nM
same,TGI,HOP-92 NSCLC,3280 nM
same,GI50,HCT-116 colon,1990 nM
same,TGI,HCT-116 colon,5620 nM
same,GI50,U251 CNS,398 nM
same,TGI,U251 CNS,1290 nM
same,GI50,UO-31 renal,208 nM
same,TGI,UO-31 renal,503 nM
same,GI50,OVCAR-8 ovarian,1440 nM
same,TGI,OVCAR-8 ovarian,5580 nM
same,GI50,SW-620 colon,647 nM
same,TGI,SW-620 colon,3140 nM
same,GI50,CCRF-CEM leukemia,373 nM
same,TGI,CCRF-CEM leukemia,1700 nM
same,GI50,MOLT-4 leukemia,2850 nM
same,TGI,MOLT-4 leukemia,11000 nM
same,GI50,M14 melanoma,1620 nM
same,TGI,M14 melanoma,4190 nM
same,GI50,HL-60(TB) leukemia,438 nM
same,TGI,HL-60(TB) leukemia,2620 nM
same,GI50,LOX IMVI melanoma,1220 nM
same,TGI,LOX IMVI melanoma,2670 nM
